Like-named read-outs stand apart in the source and are kept apart here.
Test: Single oral dose human plasma pharmacokinetics of D, DA and DOH after Cogni.Q
Format: in vivo
From the text: Ten healthy male and 10 female subjects were recruited by public announcement in Amarillo, TX, from January 2013 to April 2013 (see Fig. 1 CONSORT diagram). The sample size for each gender was chosen without power calculation due to the lack of prior knowledge of PK parameter variance in humans. After receiving informed consent verbally and in writing, the health status of each candidate was confirmed by health questionnaire, plasma biochemistry (hepatic and renal functions), complete blood cell count (CBC), and a physical examination by a participating academic physician. Subjects with diabetes, or pregnant, perinatal and breastfeeding women were excluded. For the 48 hours preceding study visit until the final blood draw, all subjects were instructed to avoid taking any prescription or nonprescription drugs, vitamins, and herbal/dietary supplements. Each subject was compensated for participating in the study per TTUHSC IRB approved rate.
Eligible subjects arrived at our clinical facility at 0700 (7:00 am) on the test day after a fast beginning at 2200 (10:00 pm) the previous night. After a brief review of vital signs, the nurse placed an intravenous (IV) line with saline drip in one arm of each subject. A baseline pre-dose (hour 0) blood sample was drawn through the IV line; after that subjects swallowed four Cogni.Q vegicaps with 240 mL of water at hour 0 under direct supervision. Subjects stayed at the clinical facility in their room for the next 12 hours, returning at 24 and 48 hours. Blood was drawn at baseline (hour 0) and at 0.5, 1, 2, 3, 4, 6, 8, 12, 24 and 48 hours after dosing into Vacutainer Blood Collection Tube (Becton-Dickinson, Franklin Lakes, NJ. Product Number: 367874, Sodium heparin was used as anti-coagulant). Water was allowed as desired except for within the first hour after Cogni.Q consumption. All subjects received standardized meals at post-dose hours 4.5 and 9.5 but no food was allowed for at least the first 4 hours post-dose.
Plasma was prepared by centrifuging the heparinized blood at 1000 g for 15 minutes at room temperature. Urine samples (40mL) were collected within time spans of 0–4, 4–8, 8–12 and 12–24 hours (total volume of urine was recorded). All plasma and urine samples were put on dry ice immediately and then stored at -80°C freezer until analysis.
Plasma samples were extracted with a validated solid supported liquid extraction (SLE) method facilitated with a positive pressure manifold (Biotage, Charlotte, NC). Briefly, 100 μL of plasma sample was spiked with 5 μL of 10 ng/μL prednisolone (IS), diluted with 200 μL of LC-MS grade water, mixed and loaded onto ISOLUTE SLE+ 400 μL Array Well cartridges (Biotage, Charlotte, NC). A pulse of minimum positive pressure was applied to facilitate the samples absorption into the cartridges. After the samples were allowed to absorb for 5 min, the compounds were eluted with 2×500 μL tert-butyl methyl ether. The eluent was dried in a Speedvac and the resulting residue was reconstituted in 50 μL of methanol for UHPLC-MS/MS analysis.
Eight-point calibration curves were constructed for D, DA and DOH, at concentrations of 0.1, 0.5, 1, 5, 10, 20, 50 and 100 μg/L for D and DA, and at concentrations of 1, 5, 10, 50, 100, 200, 500 and 1000 μg/L for DOH, respectively. The linear range was 0.1–100 μg/L (0.3–300 nmol/L), 0.1–100 μg/L (0.3–300 nmol/L) and 1–1000 μg/L (4–4000 nmol/L) for D, DA and DOH, respectively. The inter- and intra-assay CV were lower than 6.5% and the accuracy was between 90–105%. Calibration curve was run for each batch of samples analyzed. The mean calibration curve correlation coefficient (r) for D, DA and DOH was 0.999, 0.999 and 0.998, respectively (data from 7–10 calibration curves). In addition, 70% of the plasma samples were extracted and analyzed twice, the data from two replicate analyses were nearly identical and combined for final data analyses and presentation. […]

Question: What does the source list for `CC(C)=CC(=O)O[C@H]1Cc2cc3ccc(=O)oc3cc2OC1(C)C` [D, decursin]?
Answer: Cmax (both sexes, human, plasma, oral, 4 Cogni.Q vegicaps, n=20 (S1 Table), read-out: Cmax, nM, Grand Mean): 5.3 nM; Tmax (both sexes, human, plasma, oral, 4 Cogni.Q vegicaps, n=20 (S1 Table), read-out: Tmax, h, Grand Mean): 2.1 h; half-life (both sexes, human, plasma, oral, all subjects, outliers excluded (S1 Table), read-out: Terminal t1/2, h, Grand Mean (converted)): 17.4 h; AUC(0-t) (both sexes, human, plasma, oral, n=20 (S1 Table), read-out: AUC0-48h, Grand Mean): 37.1 nmol·h/L; AUC(0-t) (both sexes, human, plasma, po, all human subjects n = 20, single oral dose Cogni.Q, plasma (Table 2), read-out: AUC0–48h, nmol/L, Mean (SD)): 37.1 nmol·h/L; AUC(0-t) (both sexes, human, twenty healthy subjects, single oral dose Cogni.Q, plasma (abstract), read-out: mean area under the curve (AUC0-48h)): 37 nmol·h/L; Tmax (both sexes, all human subjects n = 20, single oral dose 4 Cogni.Q vegicaps (119 mg D, 77 mg DA), plasma, read-out: Tmax, h, Mean (SD)): 2.1 h; half-life (both sexes, all human subjects, four outlier subjects excluded, single oral dose Cogni.Q, plasma, read-out: Terminal t1/2, h, Mean (SD) (converted)): 17.4 h; AUC(0-t) (female, human, plasma, oral, 4 Cogni.Q vegicaps, Women n=10 (S1 Table), read-out: AUC0-48h, Mean, F): 45.7 nmol·h/L; Cmax (female, human, plasma, oral, 4 Cogni.Q vegicaps, Women n=10 (S1 Table), read-out: Cmax, nM, Mean, F): 5.37 nM; Tmax (female, human, plasma, oral, Women n=10 (S1 Table), read-out: Tmax, h, Mean, F): 2.4 h; half-life (female, human, plasma, oral, Women, outliers excluded (S1 Table), read-out: Terminal t1/2, h, Mean, F (converted)): 17 h; AUC(0-t) (female, human, plasma, po, Women N = 10, single oral dose Cogni.Q, plasma, read-out: AUC0–48h, h.nmol/L Mean (SD)): 45.7 nmol·h/L; Cmax (female, human, plasma, po, Women N = 10, single oral dose Cogni.Q, plasma, read-out: Cmax, nmol/L, Mean (SD)): 5.4 nM; Tmax (female, human, plasma, po, Women N = 10, single oral dose Cogni.Q, plasma, read-out: Tmax, h, Mean (SD)): 2.4 h; half-life (female, human, plasma, po, Women, outlier subjects excluded, single oral dose Cogni.Q, plasma, read-out: T1/2, h, terminal Mean (SD) (converted)): 17 h; half-life (human, plasma, oral, 4 Cogni.Q vegicaps, subject S1 (115 lb), outlier, excluded from means, read-out: Terminal t1/2, h (converted)): 173 h; AUC(0-t) (human, plasma, oral, 4 Cogni.Q vegicaps, subject S1 (115 lb), read-out: AUC0-48h): 45 nmol·h/L; Cmax (human, plasma, oral, 4 Cogni.Q vegicaps, subject S1 (115 lb), read-out: Cmax): 4.7 nM; Tmax (human, plasma, oral, 4 Cogni.Q vegicaps, subject S1 (115 lb), read-out: Tmax): 1 h; AUC(0-t) (human, plasma, oral, 4 Cogni.Q vegicaps, subject S2 (194 lb), read-out: AUC0-48h): 14.8 nmol·h/L; Cmax (human, plasma, oral, 4 Cogni.Q vegicaps, subject S2 (194 lb), read-out: Cmax): 2 nM; half-life (human, plasma, oral, 4 Cogni.Q vegicaps, subject S2 (194 lb), read-out: Terminal t1/2, h (converted)): 16.9 h; Tmax (human, plasma, oral, 4 Cogni.Q vegicaps, subject S2 (194 lb), read-out: Tmax): 2 h; half-life (human, plasma, oral, 4 Cogni.Q vegicaps, subject S3 (170 lb), outlier, excluded from means, read-out: Terminal t1/2, h (converted)): 69.6 h; AUC(0-t) (human, plasma, oral, 4 Cogni.Q vegicaps, subject S3 (170 lb), read-out: AUC0-48h): 9.8 nmol·h/L; Cmax (human, plasma, oral, 4 Cogni.Q vegicaps, subject S3 (170 lb), read-out: Cmax): 1.6 nM; Tmax (human, plasma, oral, 4 Cogni.Q vegicaps, subject S3 (170 lb), read-out: Tmax): 4 h; AUC(0-t) (human, plasma, oral, 4 Cogni.Q vegicaps, subject S4 (170 lb), read-out: AUC0-48h): 119 nmol·h/L; Cmax (human, plasma, oral, 4 Cogni.Q vegicaps, subject S4 (170 lb), read-out: Cmax): 13.2 nM; half-life (human, plasma, oral, 4 Cogni.Q vegicaps, subject S4 (170 lb), read-out: Terminal t1/2, h (converted)): 10.8 h; Tmax (human, plasma, oral, 4 Cogni.Q vegicaps, subject S4 (170 lb), read-out: Tmax): 2 h; AUC(0-t) (human, plasma, oral, 4 Cogni.Q vegicaps, subject S5 (161 lb), read-out: AUC0-48h): 34.3 nmol·h/L; Cmax (human, plasma, oral, 4 Cogni.Q vegicaps, subject S5 (161 lb), read-out: Cmax): 2 nM; half-life (human, plasma, oral, 4 Cogni.Q vegicaps, subject S5 (161 lb), read-out: Terminal t1/2, h (converted)): 22.8 h; Tmax (human, plasma, oral, 4 Cogni.Q vegicaps, subject S5 (161 lb), read-out: Tmax): 1 h; AUC(0-t) (human, plasma, oral, 4 Cogni.Q vegicaps, subject S6 (120 lb), read-out: AUC0-48h): 94 nmol·h/L; Cmax (human, plasma, oral, 4 Cogni.Q vegicaps, subject S6 (120 lb), read-out: Cmax): 13.4 nM; half-life (human, plasma, oral, 4 Cogni.Q vegicaps, subject S6 (120 lb), read-out: Terminal t1/2, h (converted)): 12.8 h; Tmax (human, plasma, oral, 4 Cogni.Q vegicaps, subject S6 (120 lb), read-out: Tmax): 3 h; AUC(0-t) (human, plasma, oral, 4 Cogni.Q vegicaps, subject S7 (180 lb), read-out: AUC0-48h): 23.3 nmol·h/L; Cmax (human, plasma, oral, 4 Cogni.Q vegicaps, subject S7 (180 lb), read-out: Cmax): 3.6 nM; half-life (human, plasma, oral, 4 Cogni.Q vegicaps, subject S7 (180 lb), read-out: Terminal t1/2, h (converted)): 24.7 h; Tmax (human, plasma, oral, 4 Cogni.Q vegicaps, subject S7 (180 lb), read-out: Tmax): 4 h; AUC(0-t) (human, plasma, oral, 4 Cogni.Q vegicaps, subject S8 (160 lb), read-out: AUC0-48h): 79.2 nmol·h/L; Cmax (human, plasma, oral, 4 Cogni.Q vegicaps, subject S8 (160 lb), read-out: Cmax): 9.6 nM; half-life (human, plasma, oral, 4 Cogni.Q vegicaps, subject S8 (160 lb), read-out: Terminal t1/2, h (converted)): 9.9 h; Tmax (human, plasma, oral, 4 Cogni.Q vegicaps, subject S8 (160 lb), read-out: Tmax): 3 h; AUC(0-t) (human, plasma, oral, 4 Cogni.Q vegicaps, subject S9 (158 lb), read-out: AUC0-48h): 20.6 nmol·h/L; Cmax (human, plasma, oral, 4 Cogni.Q vegicaps, subject S9 (158 lb), read-out: Cmax): 2.4 nM; half-life (human, plasma, oral, 4 Cogni.Q vegicaps, subject S9 (158 lb), read-out: Terminal t1/2, h (converted)): 24 h; Tmax (human, plasma, oral, 4 Cogni.Q vegicaps, subject S9 (158 lb), read-out: Tmax): 1 h

Source: PMC4335020, “Single Oral Dose Pharmacokinetics of Decursin and Decursinol Angelate in Healthy Adult Men and Women” (PLoS ONE, 2015)
